Assay [1] relates to phosphorylation of ERK, KRAS G12V in SW620. Briefly: pERK inhibition assay. Type of assay: cell-based. As to conditions: Homo sapiens, SW-620, 4 h, SW620 cells. The procedure: (§1) This assay is to measure the ability of test compounds in inhibiting the phosphorylation of ERK, the downstream signaling of KRAS G12C in NCI-H358 cells, KRAS G12D in AGS cells, and KRAS G12V in SW620. NCI-H358 (ATCC-CRL5807) cells, AGS (ATCC-CRL-1739) cells, SW620 (ATCC-CCL-227) cells were all grown and maintained using RPMI-1640 medium (Thermo Fisher Scientific) with 10% fetal bovine serum and 1% penicillin/streptomycin. On the day prior to compound addition, cells were plated in tissue culture-treated 96 well plates (Corning-3699) at a density of 30,000 cell/well, 20,000 cell/well, 30,000 cell/well for NCI-H358, AGS and SW620 respectively, and allowed for attachment overnight. Diluted compounds were then added in a final concentration of 0.5% DMSO. After 4 hours of incubation, the medium was removed, 100 μL of 4% formaldehyde was added, and the assay plates were incubated at room temperature for 20 minutes. The plates were then washed once with phosphate buffered saline (PBS), and permeabilized with 100 μL of chilled methanol for 10 minutes. Non-specific antibody binding to the plates was blocked using 50 μL 1X BSA blocking buffer (Thermo-37520, 10-fold dilution by Phosphate-Buffered Saline Tween (PBST) for at least 1 hour at room temperature.
(§2) The amount of phosphor-ERK was determined using an antibody specific for phosphorylated form of ERK. Primary antibody (PERK, CST-4370, Cell Signaling Technology) was diluted 1:300 in blocking buffer, with 50 μL aliquoted to each well, and incubated overnight at 4° C. Cells was washed five times for 5 minutes with PBST. Secondary antibody (HRP-linked anti-rabbit IgG, CST-7074, Cell Signaling Technology) was diluted 1:1000 in blocking buffer, and 50 μL was added to each well and incubated 1-2 hrs at room temperature. Cells was washed […] for 5 minutes with PBST, 100 μL TMB ELISA substrate (abcam-ab171523) were added and gently shake for 20 minutes. 50 μL stop solution (abcam-ab 171529) were added, and then read the signal (OD450) by EnVision.
(§3) IC50 was determined by fitting a 4-parameter sigmoidal concentration response model.

Assay [2] has as its system phosphorylation of ERK, KRAS G12D in AGS cells. Briefly: pERK inhibition assay. Type of assay: cell-based. Particulars: Homo sapiens, AGS, 4 h. The procedure:
as §1, §2, §3

Assay [3] relates to phosphorylation of ERK, KRAS G12C in NCI-H358 cells. Nature of the assay: pERK inhibition assay. Type of assay: cell-based. As to conditions: Homo sapiens, NCI-H358, 4 h. The procedure: as §1, §2, §3
In another assay the test system is SW620 cells (KRAS G12V). Nature of the assay: Cell viability assay (Cell Counting Kit-8, 3-day). Particulars: Homo sapiens, SW-620; SW620, 72 hrs incubation. Type of assay: cell-based, human. The procedure: (§4) The purpose of this cellular assay was to determine the effects of test compounds on the proliferation of human cancer cell lines NCI-H358 (ATCC-CRL5807) cells, AGS (ATCC-CRL-1739) cells, SW620 (ATCC-CCL-227) over a 3-day treatment period by quantifying the amount of NADPH present at endpoint using Cell Counting Kit-8.
(§5) Cells were seeded at 5,000 cells/well (NCI-H358), 2,000 cells/well (AGS) 2,000 cells/well (SW620) in 96-well assay plates (Corning-3699) and incubated overnight. On the day of the assay, diluted compounds were then added in a final concentration of 0.5% DMSO. After 72 hrs incubation, a tenth of the volume of cell counting kit 8 (Dnjindo-CK04) was added into each well. Read the signal (OD450 minus OD650) using EnVision after 2 hrs incubation. IC50 was determined by fitting a 4-parameter sigmoidal concentration response model.

The test system of assay [4] is NCI-H358 cells (KRAS G12C). Briefly: Cell viability assay (Cell Counting Kit-8, 3-day). Type of assay: cell-based, human. Particulars: Homo sapiens, NCI-H358, 72 h, NCI-H358, 72 hrs incubation. The procedure: as §4, §5
(Formazan colour is commonly taken as a measure of viable cells.)

The test system of the next assay is AGS cells (KRAS G12D). Nature of the assay: Cell viability assay (Cell Counting Kit-8, 3-day). Type of assay: cell-based, human. Particulars: Homo sapiens, 72 h, 72 hrs incubation. The procedure: as §4, §5

What is called IC50 is the concentration needed to halve the response being measured. For `CO[C@@H](C)c1ncc(N2CCN(C)CC2)cc1-c1c2c3cc(cc4c3n1CCC4)-c1csc(n1)C[C@H](NC(=O)C1(C)CC1(F)F)C(=O)N1CCC[C@H](N1)C(=O)OCC(C)(C)C2` (stereo partly drawn) [Example 19, 2,2-difluoro-N-[(7S,13S)-(20M)-20-[2-[(1S)-1-methoxyethyl]-5-(4-methylpiperazin-1-yl)-3-pyridyl]-17,17-dimethyl-8,14-dioxo-15-oxa-4-thia-9,21,30,31-tetrazahexacyclo[23.3.1.1^2,5.1^9,13.0^19,27.0^21,26]hentriaconta-1 (28),2,5 (31),19,25 (29),26-hexaen-7-yl]-1-methyl-cyclopropanecarboxamide], the IC50 in assay [1] came out at 2.7 nM; in assay [2], 20.7 nM; in assay [3] it was 1.9 nM; with SW620 cells (KRAS G12V) it was 3.8 nM; in assay [4], 17.1 nM; in the assay with AGS cells (KRAS G12D), 98.7 nM.
In the case of `CO[C@@H](C)c1ncc(N2CCN(C)CC2)cc1-c1c2c3cc(cc4c3n1CCC4)-c1csc(n1)C[C@H](NC(=O)[C@@H]1C[C@H]1c1ccccc1F)C(=O)N1CCC[C@H](N1)C(=O)OCC(C)(C)C2` [Example 28, (1R,2R)-2-(2-fluorophenyl)-N-[(7S,13S)-(20M)-20-[2-[(1S)-1-methoxyethyl]-5-(4-methylpiperazin-1-yl)-3-pyridyl]-17,17-dimethyl-8,14-dioxo-15-oxa-4-thia-9,21,30,31-tetrazahexacyclo[23.3.1.1^2,5.1^9,13.0^19,27.0^21,26]hentriaconta-1 (28),2,5 (31),19,25 (29),26-hexaen-7-yl]cyclopropanecarboxamide], the IC50 was determined as 1.3 nM in assay [1]; 9.4 nM in assay [2]; 1.2 nM in assay [3]; 1.5 nM in the assay on SW620 cells (KRAS G12V); 7 nM in assay [4]; 22.3 nM in the assay on AGS cells (KRAS G12D).
As for `CO[C@@H](C)c1ncc(N2CCN(C)CC2)cc1-c1c2c3cc(cc4c3n1CCC4)-c1csc(n1)C[C@H](NC(=O)[C@H]1CC[C@H](c3nnnn3C)CC1)C(=O)N1CCC[C@H](N1)C(=O)OCC(C)(C)C2` (atropisomer, axis not shown; (M)) [Example 70, trans-N-[(7S,13S)-(20M)-20-[2-[(1S)-1-methoxyethyl]-5-(4-methylpiperazin-1-yl)-3-pyridyl]-17,17-dimethyl-8,14-dioxo-15-oxa-4-thia-9,21,30,31-tetrazahexacyclo[23.3.1.1^2,5.1^9,13.0^19,27.0^21,26]hentriaconta-1 (29),2,5 (31),19,25,27-hexaen-7-yl]-4-(1-methyltetrazol-5-yl)cyclohexanecarboxamide], the IC50 in assay [1] worked out at 5.5 nM; in assay [2], 27.9 nM; in assay [3], 1.8 nM; with SW620 cells (KRAS G12V) it was 17.9 nM; in assay [4], 24.7 nM; with AGS cells (KRAS G12D), 98.7 nM.
For `CO[C@@H](C)c1ncc(N2CCOCC2)cc1-c1c2c3cc(cc4c3n1CCO4)-c1csc(n1)C[C@H](NC(=O)[C@H]1C[C@@H]1c1ccccc1)C(=O)N1CCC[C@H](N1)C(=O)OCC(C)(C)C2` (atropisomer, axis not shown; (M)) [Example 43, (1S,2S)-N-[(7S,13S)-(20M)-20-[2-[(1S)-1-methoxyethyl]-5-morpholino-3-pyridyl]-17,17-dimethyl-8,14-dioxo-15,24-dioxa-4-thia-9,21,30,31-tetrazahexacyclo[23.3.1.1^2,5.1^9,13.0^19,27.0^21,26]hentriaconta-1 (29),2,5 (31), 19,25,27-hexaen-7-yl]-2-phenyl-cyclopropanecarboxamide], the IC50 in assay [1] was found to be 0.3 nM; in assay [2] it was 3.8 nM; in assay [3], 0.7 nM; with SW620 cells (KRAS G12V), 0.9 nM; in assay [4], 3.6 nM; in the assay with AGS cells (KRAS G12D), 11.9 nM.
With `CO[C@@H](C)c1ncc(N2CCOCC2)cc1-c1c2c3cc(cc4c3n1CCCC4)-c1csc(n1)C[C@H](NC(=O)[C@H]1[C@H](C)[C@@H]1C)C(=O)N1CCC[C@H](N1)C(=O)OCC(C)(C)C2` [Example 126, (1r,2R,3S)-N-[(7S,13S)-(20M)-20-[2-[(1S)-1-methoxyethyl]-5-morpholino-3-pyridyl]-17,17-dimethyl-8,14-dioxo-15-oxa-4-thia-9,21,31,32-tetrazahexacyclo[24.3.1.1^2,5.1^9,13.0^19,28.0^19,28.0^21,27]dotriaconta-1 (29),2,5 (32),19,26 (30),27-hexaen-7-yl]-2,3-dimethyl-cyclopropanecarboxamide], the IC50 in assay [1] came out at 3 nM; in assay [2] it was 50 nM; in assay [3] it was 5 nM; in the assay with SW620 cells (KRAS G12V), 7 nM; in assay [4], 40 nM; in the assay with AGS cells (KRAS G12D) it was 757 nM.
Consider `CO[C@@H](C)c1ncc(N2CCOCC2)cc1-c1c2c3cc(cc4c3n1C(C)(C)CC4)-c1csc(n1)C[C@H](NC(=O)[C@H]1C[C@@H]1C)C(=O)N1CCC[C@H](N1)C(=O)OCC(C)(C)C2` [Example 125, (1S,2S)-N-[(7S,13S)-(20M)-20-[2-[(1S)-1-methoxyethyl]-5-morpholino-3-pyridyl]-17,17,22,22-tetramethyl-8,14-dioxo-15-oxa-4-thia-9,21,30,31-tetrazahexacyclo[23.3.1.1^2,5.1^9,13.0^19,27.0^21,26]hentriaconta-1 (29),2,5 (31),19,25,27-hexaen-7-yl]-2-methyl-cyclopropanecarboxamide], for which the IC50 in assay [1] came to 84 nM; in assay [2], 481 nM; in assay [3], 303 nM; in the assay on SW620 cells (KRAS G12V) it was 208 nM; in assay [4], 1100 nM; with AGS cells (KRAS G12D), 4720 nM.
Consider `CO[C@@H](C)c1ncc(N2CCOCC2)cc1-c1c2c3cc(cc4c3n1CCC4)-c1csc(n1)C[C@H](NC(=O)[C@H]1C[C@@H]1c1ccccc1)C(=O)N1CCC[C@H](N1)C(=O)OCC(C)(C)C2` (atropisomer, axis not shown; (M)) [Example 46, (1S,2S)-N-[(7S,13S)-(20M)-20-[2-[(1S)-1-methoxyethyl]-5-morpholino-3-pyridyl]-17,17-dimethyl-8,14-dioxo-15-oxa-4-thia-9,21,30,31-tetrazahexacyclo[23.3.1.1^2,5.1^9,13.0^19,27.0^21,26]hentriaconta-1 (29),2,5 (31), 19,25,27-hexaen-7-yl]-2-phenyl-cyclopropanecarboxamide], for which the half-inhibitory concentration (IC50) in assay [1] came to 1 nM; in assay [2] it was 9.1 nM; in assay [3] it was 0.9 nM; in the assay with SW620 cells (KRAS G12V), 2.4 nM; in assay [4], 8.1 nM; in the assay with AGS cells (KRAS G12D), 32.2 nM.
Consider `CO[C@@H](C)c1ncc(N2CCN(C)CC2)cc1-c1c2c3cc(cc4c3n1CCC4)-c1csc(n1)C[C@H](NC(=O)[C@H]1C[C@@H]1c1ccncc1)C(=O)N1CCC[C@H](N1)C(=O)OCC(C)(C)C2` [Example 57, (1S,2S)-N-[(7S,13S)-(20M)-20-[2-[(1S)-1-methoxyethyl]-5-(4-methylpiperazin-1-yl)-3-pyridyl]-17,17-dimethyl-8,14-dioxo-15-oxa-4-thia-9,21,30,31-tetrazahexacyclo[23.3.1.1^2,5.1^9,13.0^19,27.0^21,26]hentriaconta-1 (28),2,5 (31), 19,25 (29),26-hexaen-7-yl]-2-(4-pyridyl)cyclopropanecarboxamide], for which the IC50 turned out to be 1.3 nM in assay [1]; 6.1 nM in assay [2]; 1.1 nM in assay [3]; 1.5 nM in the assay with SW620 cells (KRAS G12V); 5.4 nM in assay [4]; 27.6 nM in the assay with AGS cells (KRAS G12D).

Source of the values: patent US20240417410A1, “TRICYCLIC COMPOUNDS FOR THE TREATMENT OF CANCER” (Hoffmann-La Roche Inc., priority 2023, published 2024).
